Source: ChEMBL document CHEMBL3885881, “DrugMatrix”

Species on record: Rattus norvegicus
Experiment: DrugMatrix - Regimen: Daily Repeat
Format: toxicity, organism-based, Sprague-Dawley
Design: regimen Daily Repeat, gender Male, age 6-8 weeks
Details: in vivo, po, route oral GAVAGE, […]; for ABSOLUTE BASOPHIL / ABSOLUTE EOSINOPHIL / ABSOLUTE LYMPHOCYTE / ABSOLUTE MONOCYTE / ABSOLUTE SEGMENTED NEUTROPHIL / BASOPHIL / EOSINOPHIL / ERYTHROCYTE COUNT / HEMATOCRIT / HEMOGLOBIN / LEUKOCYTE COUNT / LYMPHOCYTE / MEAN CORPUSCULAR HEMOGLOBIN / MEAN CORPUSCULAR HEMOGLOBIN CONCENTRATION / MEAN CORPUSCULAR VOLUME / MONOCYTE / NEUTROPHIL / NUCLEATED RED BLOOD CELLS / PLATELET COUNT: tissue Blood; for ALANINE AMINOTRANSFERASE / ALBUMIN / ALKALINE PHOSPHATASE / ASPARTATE AMINOTRANSFERASE / BLOOD UREA NITROGEN / CARBON DIOXIDE / CHLORIDE / CHOLESTEROL / CREATINE PHOSPHOKINASE / CREATININE / GLUCOSE / LACTATE DEHYDROGENASE / LIPASE / PHOSPHORUS / POTASSIUM / SODIUM / TOTAL BILIRUBIN / TOTAL PROTEIN / URIC ACID: tissue Plasma
[1] = 0 mg/kg, 72 h, dose level Control, time 3 day
[2] = 0 mg/kg, 120 h, dose level Control, time 5 day
[3] = 0.6 mg/kg, 72 h, dose level Low, time 3 day

O=C(O)CCCc1ccc(N(CCCl)CCCl)cc1 [CHLORAMBUCIL]
ABSOLUTE BASOPHIL [1]: 0 CELLS/uL | ABSOLUTE EOSINOPHIL [1]: 104.17 CELLS/uL | ABSOLUTE LYMPHOCYTE [1]: 14547 CELLS/uL | ABSOLUTE MONOCYTE [1]: 292 CELLS/uL | ABSOLUTE SEGMENTED NEUTROPHIL [1]: 1640.17 CELLS/uL | BASOPHIL [1]: 0% | EOSINOPHIL [1]: 0.67% | ERYTHROCYTE COUNT [1]: 5.35 x10E6/uL | HEMATOCRIT [1]: 33.67% | HEMOGLOBIN [1]: 13.38 G/DL | LEUKOCYTE COUNT [1]: 16.58 x10E3/uL | LYMPHOCYTE [1]: 87.5% | MEAN CORPUSCULAR HEMOGLOBIN [1]: 25.05 pg | MEAN CORPUSCULAR HEMOGLOBIN CONCENTRATION [1]: 39.78 G/DL | MEAN CORPUSCULAR VOLUME [1]: 62.97 fL | MONOCYTE [1]: 1.83% | NEUTROPHIL [1]: 10% | NUCLEATED RED BLOOD CELLS [1]: 0 /100WBC | PLATELET COUNT [1]: 1274.5 x10E3/uL | ALANINE AMINOTRANSFERASE [1]: 76.83 u/L | ALBUMIN [1]: 3.97 G/DL | ALKALINE PHOSPHATASE [1]: 347 u/L | ASPARTATE AMINOTRANSFERASE [1]: 97.17 u/L | BLOOD UREA NITROGEN [1]: 14.33 mg/dL | CARBON DIOXIDE [1]: 25.5 mmol/L | CHLORIDE [1]: 100.33 MEQ/L | CHOLESTEROL [1]: 68.67 mg/dL | CREATINE PHOSPHOKINASE [1]: 659.17 u/L | CREATININE [1]: 0.32 mg/dL | GLUCOSE [1]: 160.67 mg/dL | LACTATE DEHYDROGENASE [1]: 271.5 u/L | LIPASE [1]: 11.67 u/L | PHOSPHORUS [1]: 10.65 mg/dL | POTASSIUM [1]: 5.95 MEQ/L | SODIUM [1]: 139.65 MEQ/L | TOTAL BILIRUBIN [1]: 0.2 mg/dL | TOTAL PROTEIN [1]: 5.72 G/DL | URIC ACID [1]: 1.37 mg/dL | ABSOLUTE BASOPHIL [2]: 0 CELLS/uL | ABSOLUTE EOSINOPHIL [2]: 331.5 CELLS/uL | ABSOLUTE LYMPHOCYTE [2]: 15021.67 CELLS/uL | ABSOLUTE MONOCYTE [2]: 376.5 CELLS/uL | ABSOLUTE SEGMENTED NEUTROPHIL [2]: 3070.33 CELLS/uL | BASOPHIL [2]: 0% | EOSINOPHIL [2]: 1.83% | ERYTHROCYTE COUNT [2]: 5.24 x10E6/uL | HEMATOCRIT [2]: 33.22% | HEMOGLOBIN [2]: 13.2 G/DL | LEUKOCYTE COUNT [2]: 18.8 x10E3/uL | LYMPHOCYTE [2]: 79.67% | MEAN CORPUSCULAR HEMOGLOBIN [2]: 25.17 pg | MEAN CORPUSCULAR HEMOGLOBIN CONCENTRATION [2]: 39.73 G/DL | MEAN CORPUSCULAR VOLUME [2]: 63.38 fL | MONOCYTE [2]: 2% | NEUTROPHIL [2]: 16.5% | NUCLEATED RED BLOOD CELLS [2]: 0 /100WBC | PLATELET COUNT [2]: 1142.67 x10E3/uL | ALANINE AMINOTRANSFERASE [2]: 52.5 u/L | ALBUMIN [2]: 3.9 G/DL | ALKALINE PHOSPHATASE [2]: 284.5 u/L | ASPARTATE AMINOTRANSFERASE [2]: 81.33 u/L | BLOOD UREA NITROGEN [2]: 16 mg/dL | CARBON DIOXIDE [2]: 25.33 mmol/L | CHLORIDE [2]: 99.5 MEQ/L | CHOLESTEROL [2]: 74.83 mg/dL | CREATINE PHOSPHOKINASE [2]: 448.33 u/L | CREATININE [2]: 0.37 mg/dL | GLUCOSE [2]: 164.17 mg/dL | LACTATE DEHYDROGENASE [2]: 290.67 u/L | LIPASE [2]: 6.83 u/L | PHOSPHORUS [2]: 11.5 mg/dL | POTASSIUM [2]: 6.28 MEQ/L | SODIUM [2]: 139.5 MEQ/L | TOTAL BILIRUBIN [2]: 0.13 mg/dL | TOTAL PROTEIN [2]: 5.55 G/DL | URIC ACID [2]: 1.12 mg/dL | ABSOLUTE BASOPHIL [3]: 0 CELLS/uL | ABSOLUTE EOSINOPHIL [3]: 134 CELLS/uL | ABSOLUTE LYMPHOCYTE [3]: 11100 CELLS/uL | ABSOLUTE MONOCYTE [3]: 438.67 CELLS/uL | ABSOLUTE SEGMENTED NEUTROPHIL [3]: 1260.67 CELLS/uL | BASOPHIL [3]: 0% | EOSINOPHIL [3]: 1% | ERYTHROCYTE COUNT [3]: 5.4 x10E6/uL | HEMATOCRIT [3]: 34.47% | HEMOGLOBIN [3]: 13.6 G/DL | LEUKOCYTE COUNT [3]: 12.93 x10E3/uL | LYMPHOCYTE [3]: 86% | MEAN CORPUSCULAR HEMOGLOBIN [3]: 25.2 pg | MEAN CORPUSCULAR HEMOGLOBIN CONCENTRATION [3]: 39.43 G/DL | MEAN CORPUSCULAR VOLUME [3]: 63.87 fL | MONOCYTE [3]: 3.33% | NEUTROPHIL [3]: 9.67% | NUCLEATED RED BLOOD CELLS [3]: 0 /100WBC | PLATELET COUNT [3]: 1307.67 x10E3/uL | ALANINE AMINOTRANSFERASE [3]: 68 u/L | ALBUMIN [3]: 3.93 G/DL | ALKALINE PHOSPHATASE [3]: 423 u/L | ASPARTATE AMINOTRANSFERASE [3]: 81.33 u/L | BLOOD UREA NITROGEN [3]: 13.33 mg/dL | CARBON DIOXIDE [3]: 25.33 mmol/L | CHLORIDE [3]: 101 MEQ/L | CHOLESTEROL [3]: 71 mg/dL | CREATINE PHOSPHOKINASE [3]: 316.67 u/L | CREATININE [3]: 0.26 mg/dL | GLUCOSE [3]: 153.33 mg/dL | LACTATE DEHYDROGENASE [3]: 99.67 u/L | LIPASE [3]: 13 u/L | PHOSPHORUS [3]: 11.17 mg/dL | POTASSIUM [3]: 5.8 MEQ/L | SODIUM [3]: 140.37 MEQ/L | TOTAL BILIRUBIN [3]: 0.17 mg/dL | TOTAL PROTEIN [3]: 5.67 G/DL | URIC ACID [3]: 1.1 mg/dL
